Measurements taken from patent publication US11851426B2, “Bicyclic amines as CDK2 inhibitors” (Incyte Corporation, priority 2019, dated 2023).

The molecules below were run against CDK2/Cyclin E1 (Homo sapiens (Human), UniProt P24941) (assay: CDK2/Cyclin E1 HTRF enzyme activity assay). Conditions: 1 mM ATP; CDK2/Cyclin E1 0.25 nM; 60 minutes at room temperature.
Assay type: biochemical
Outline: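 HTRF read-out of 4E-BP1 (Thr37/46) peptide phosphorylation (ULight peptide 50 nM) by 0.25 nM baculovirus-made GST-CDK2/FLAG-Cyclin E1, with ATP at 50 μM or 1 mM, 60 min at room temperature, pH 7.5. Eu-anti-phospho antibody with EDTA quench; IC50 fitted by three- or four-parameter dose-response.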

IC50, ≤ 20 nM:
CS(=O)(=O)N1CCC(Nc2nc3c(N4CCCC4)c(-c4cn[nH]c4)ncn3n2)CC1 [Example 52, N-(1-(Methylsulfonyl)piperidin-4-yl)-7-(1H-pyrazol-4-yl)-8-(pyrrolidin-1-yl)-[1,2,4]triazolo[1,5-c]pyrimidin-2-amine]
CC(C)Oc1c(-c2cn[nH]c2)ccc2nc(N[C@H]3CCN(S(C)(=O)=O)C[C@H]3C)nn12 [Example 68, 5-Isopropoxy-N-((3R,4S)-3-methyl-1-(methylsulfonyl)piperidin-4-yl)-6-(1H-pyrazol-4-yl)-[1,2,4]triazolo[1,5-a]pyridin-2-amine]
CS(=O)(=O)N1CCC(Nc2nc3cnc(-c4cn[nH]c4)c(N4CCCC(C(F)(F)F)C4)n3n2)CC1 (stereo not drawn) [Example 136, N-(1-(Methylsulfonyl)piperidin-4-yl)-6-(1H-pyrazol-4-yl)-5-(3-(trifluoromethyl)piperidin-1-yl)-[1,2,4]triazolo[1,5-a]pyrazin-2-amine]
CS(=O)(=O)N1CCC(Nc2nc3c(OCC4CC4)c(-c4cn[nH]c4)ccn3n2)CC1 [Example 4, 8-(cyclopropylmethoxy)-N-(1-(methylsulfonyl)piperidin-4-yl)-7-(1H-pyrazol-4-yl)-[1,2,4]triazolo[1,5-a]pyridin-2-amine]
[2H]C(C)(C)Oc1c(-c2cn[nH]c2)ncc2nc(NC3CCN(S(C)(=O)=O)CC3)nn12 [Example 142, N-(1-(Methylsulfonyl)piperidin-4-yl)-5-((propan-2-yl-2-d)oxy)-6-(1H-pyrazol-4-yl)-[1,2,4]triazolo[1,5-a]pyrazin-2-amine]
CCS(=O)(=O)N1CC[C@H](Nc2nc3ccc(-c4cn[nH]c4)c(N4CCCCC4)n3n2)[C@H](C)C1 [Example 84, N-((3R,4S)-1-(Ethylsulfonyl)-3-methylpiperidin-4-yl)-5-(piperidin-1-yl)-6-(1H-pyrazol-4-yl)-[1,2,4]triazolo[1,5-a]pyridin-2-amine]
[2H]C([2H])([2H])C([2H])(Oc1c(-c2cn[nH]c2)ncc2nc(N[C@H]3CCN(S(C)(=O)=O)C[C@H]3C)nn12)C([2H])([2H])[2H] [Example 139, N-((3R,4S)-3-Methyl-1-(methylsulfonyl)piperidin-4-yl)-5-((propan-2-yl-d7)oxy)-6-(1H-pyrazol-4-yl)-[1,2,4]triazolo[1,5-a]pyrazin-2-amine]
CC(C)COc1c(-c2cn[nH]c2)ncc2nc(N[C@H]3CCN(S(C)(=O)=O)C[C@H]3C)nn12 [Example 101, 5-Isobutoxy-N-((3R,4S)-3-methyl-1-(methylsulfonyl)piperidin-4-yl)-6-(1H-pyrazol-4-yl)-[1,2,4]triazolo[1,5-a]pyrazin-2-amine]
C[C@@H]1CN(S(C)(=O)=O)CC[C@@H]1Nc1nc2cnc(-c3cn[nH]c3)c(N3CCCC(F)(F)C3)n2n1 [Example 127, 5-(3,3-Difluoropiperidin-1-yl)-N-((3R,4S)-3-methyl-1-(methylsulfonyl)piperidin-4-yl)-6-(1H-pyrazol-4-yl)-[1,2,4]triazolo[1,5-a]pyrazin-2-amine]
CC(C)Oc1c(-c2cn[nH]c2)ccn2nc(N[C@H]3CCN(S(C)(=O)=O)C[C@H]3C)nc12 [Example 43, 8-isopropoxy-N-((3R,4S)-3-methyl-1-(methylsulfonyl)piperidin-4-yl)-7-(1H-pyrazol-4-yl)-[1,2,4]triazolo[1,5-a]pyridin-2-amine]
CS(=O)(=O)N1CCC(Nc2nc3c(OCC4CCOC4)c(-c4cn[nH]c4)ccn3n2)CC1 (stereo not drawn) [Example 11, N-(1-(methylsulfonyl)piperidin-4-yl)-7-(1H-pyrazol-4-yl)-8-((tetrahydrofuran-3-yl)methoxy)-[1,2,4]triazolo[1,5-a]pyridin-2-amine]
C[C@@H]1CN(S(C)(=O)=O)CC[C@@H]1Nc1nc2cnc(-c3cn[nH]c3)c(N3CCCCC3)n2n1 [Example 125, N-((3R,4S)-3-Methyl-1-(methylsulfonyl)piperidin-4-yl)-5-(piperidin-1-yl)-6-(1H-pyrazol-4-yl)-[1,2,4]triazolo[1,5-a]pyrazin-2-amine]
